Earlier results as cited in patent publication US20060198926A1, “ALPHA-PYRONE COMPOSITION FOR CONTROLLING CRAVING AND AS A SUBSTITUTE FOR ALCOHOL” (priority 1999, published 2006).

Test system: dopaminergic neurons of the nucleus accumbens
Conditions: administered in vivo by microdialysis into the nucleus accumbens (Baum 1998)

| SMILES | levels of dopamine in the nucleus accumbens |
| --- | --- |
| COc1ccc(/C=C/c2cc(OC)cc(=O)o2)cc1 [yangonin] | decreases dopamine to undetectable levels |
| COc1cc(/C=C/c2ccccc2)oc(=O)c1 [desmethoxyyangonin] | increase in dopamine |
